{
  "source": "patent US20260207626A1",
  "about": "“SYNTHETIC TRITERPENOIDS AND COMPOSITIONS THEREOF IN WEIGHT MANAGEMENT, SKELETAL MUSCLE FUNCTION, AND APPETITE SUPPRESSION” (The Board of Regents of the University of Texas System, priority 2022, published 2026)",
  "key": {"NF-κB": {"tested_on": "NF-κB", "test": "NF-κB luciferase reporter assay in L6-GLUT4myc myotubes", "format": "cell-based, rat", "details": "500 nM CDDO-EA 1 hr then 100 ng/ml LPS 6 hours", "description": "To determine the effects of CDDO-EA on LPS-induced NF-κB transcriptional activity in L6-GLUT4myc myotubes, a luciferase reporter under the control of a promoter containing NF-κB transcription binding sites was used.\nLuciferase assay: L6-GLUT4myc myoblasts were transfected with 2 μg of phosphorylated NF-κB-MetLuc2-Reporter plasmid as described previously. After transfection, cells were plated onto a 24-well dish (1.5×10^5 cells/well) and pre-treated with CDDO-EA for 1 h. Myotubes were then stimulated with LPS 100 ng/ml (E. coli 0111: B4, Sigma Aldrich) for 6 h, and luciferase activity was measured using the Ready-To-Glow™ NF-κB Secreted Luciferase Reporter System as described."}, "TNF-α": {"tested_on": "TNF-α", "test": "Quantitative RT-PCR of LPS-induced TNF-α mRNA in L6-GLUT4myc myotubes", "format": "cell-based, rat", "details": "500 nM CDDO-EA 1 hr then 100 ng/ml LPS 1 hr", "description": "Quantitative RT-PCR: L6-GLUT4myc myoblasts (4×10^4 cell/ml, 2 ml/well) were seeded on a 6-well plate and differentiated into myo-tubes with differentiation medium for 7 days. Myotubes were pre-treated with CDDO-EA 500 nM for 1 h followed by LPS 100 ng/ml (E. coli O111: B4, Sigma Aldrich) treatment for 1 h. RNA was isolated from treated myotubes using TRIzol reagent (Ambion) according to the manufacturer's instructions. Validated RT-PCR primers specific for rat TNF-α (Assay ID: Rn99999017_m1) and rat MCP-1 (Assay ID: Rn00580555_m1), or rat GAPDH (Assay ID: Rn99999916_s1) were used to quantify mRNA levels using TaqMan RNA-to-CT 1-Step Kit (Thermo Fisher Scientific), Real-time PCR was carried out using an AB7900HT Fast Real-Time PCR System (Applied Biosystems), and MCP-1 and TNF-α levels were calculated using the ΔΔCT method according to the manufacturer's instructions."}, "GLUT4": {"tested_on": "GLUT4", "test": "Colorimetric assay of cell surface GLUT4 in L6GLUT4myc myotubes (preliminary data)", "format": "cell-based, rat", "details": "FIG. 30", "description": "Is CDDO-EA-mediated GLUT4 translocation dependent on AMPK activation? The catalytic subunit alpha-1 (α1) of AMPK will be KD by siRNA. Cells will be treated with CDDO-EA (500 nM, 1 hour), insulin ([…] for 15 min), or insulin and CDDO-EA to determine if there is a synergistic effect on GLUT4 translocation. Also, cells will be treated with the AMPK activator, 5-aminoimidazole-4-carboxamide ribonucleoside (AICAR, 1 mM, 40 minutes), as a positive control. We will use a colorimetric assay to quantitatively measure the levels of cell surface GLUT4 in 3T3-L1 adipocytes and L6GLUT4myc myotubes^37. […] GLUT4 translocation will be detected via immunofluorescence. Subcellular protein fractionation will be conducted to detect GLUT4 in the sarcolemma for myotubes and plasma membrane for adipocytes and GLUT2 in the plasma membrane of hepatocytes via Western blotting. GLUT2 will be measured in hepatocytes because GLUT2 is the most abundant glucose transporter in hepatocytes^38. To measure glucose uptake, a non-radioactive, plate-based bioluminescent assay (Glucose Uptake-Glo, Promega) will be performed. Using Glucose Uptake-Glo, insulin induces glucose uptake in L6GLUT4my myotubes. Phosphorylation of AMPK at Thr^172 and phosphorylation of ACC at Ser^79 indicates activation of the AMPK pathway. Thus, phosphorylation of AMPK Thr^172 and ACC Ser^79 will be shown through Western blotting. […]"}, "[1]": {"test": "OGTT and fasting glucose at week 6 with pair-fed group", "format": "in vivo, C57BL/6J mice", "description": "FIG. 25—OGTT Area Under the Curve. Oral GTT performed at week 6 of experimental feeding, and mice were dosed on lean mass (2 g/kg lean mass). C57BL/6J mice were fed a HFD with or without incorporation of CDDO-EA (diet containing 0.04% CDDO-EA) or LFD or HFD pair-fed for 6 weeks (n=5). Data are represented as mean±SEM (One-way ANOVA).\nFasting glucose levels were measured at day 42 of experimental feeding. C57BL/6J mice were fed a HFD with or without incorporation of CDDO-EA (diet containing 0.04% CDDO-EA) or a LFD or were HFD pair-fed for 6 weeks (n=5). Data are represented as mean±SEM (One-way ANOVA).\nTo determine the answer to this question, a pair-fed/weight-matched group was included in the study. OGTT was performed at end of the 6-week study."}, "THP-1 macrophages": {"tested_on": "THP-1 macrophages", "test": "Bio-Plex Pro human 17-plex cytokine/chemokine panel in THP-1 macrophages exposed to CDDO-EA and LPS", "format": "cell-based", "description": "THP-1 monocytes were plated in 24-well plate at 15×10^4 cells/0.5 ml/well in growth medium plus 100 ng/ml PMA into each well and cultured at 37° C. with 5% CO2 incubator for 48 h for differentiation to macrophages. […] Supernatants were collected and stored at −80° C. until analysis. Cytokines and chemokines were measured and quantified using a Bio-Plex Pro human cytokines group I, 17-plex ELISA Kit (Bio-Rad) according to the manufacturer's instructions."}, "[2]": {"details": "500 nM CDDO-EA for 1 hr then 100 ng/ml LPS for 6 hr"}},
  "note": "Entries after “also recorded” stand apart in the source; their conditions may differ.",
  "data": [
    {"smiles": "CCNC(=O)[C@]12CCC(C)(C)C[C@H]1C1C(=O)C=C3[C@@]4(C)C=C(C#N)C(=O)C(C)(C)[C@@H]4CC[C@@]3(C)[C@]1(C)CC2", "note": "(stereo partly drawn) [CDDO-EA, (4aS,6aR,6bS,8aR,12aS,14bS)-11-cyano-N-ethyl-2,2,6a,6b,9,9,12a-heptamethyl-10,14-dioxo-1,3,4,5,6,6a,6b, 7,8,8a,9,10,12a, 14,14a, 14b-hexadecahydropicene-4a (2H)-carboxamide]", "values": [
      {"measurement": "LPS-induced NF-κB transcriptional (luciferase) activity", "setting": "NF-κB", "result": "prevented the promoter activity of NF-κB; also recorded: significantly inhibited the LPS-induced NF-κB activity; also recorded: blocks NF-κB transcriptional activity"},
      {"measurement": "LPS-induced TNF-α mRNA expression", "setting": "TNF-α", "result": "lowered LPS-induced mRNA levels of TNF-α and MCP-1; also recorded: blocked the mRNA expression of LPS-induced TNF-α and MCP-1; also recorded: reduced LPS-induced TNF-α and MCP-1 gene expression levels; also recorded: inhibits LPS-inducted TNF-α and MCP-1 gene expression"},
      {"measurement": "GLUT4 translocation to the cell surface (colorimetry assay)", "setting": "GLUT4", "result": "induce GLUT4 translocation to the cell surface"},
      {"measurement": "fasting glucose", "setting": "[1]; day 42, HFD+CDDO-EA compared to HFD ad lib", "result": "significant lowered fasting glucose levels; also recorded: lowers fasting glucose levels"},
      {"measurement": "fasting glucose", "setting": "[1]; day 42, HFD+CDDO-EA compared to HFD pair-fed", "result": "close to significant effect on fasting glucose"},
      {"measurement": "glucose tolerance (OGTT Area Under the Curve)", "setting": "[1]; week 6, HFD+CDDO-EA compared to HFD ad lib", "result": "significant improvement in glucose tolerance"},
      {"measurement": "glucose tolerance (OGTT Area Under the Curve)", "setting": "[1]; week 6, HFD+CDDO-EA compared to HFD pair-fed", "result": "slight improvement in glucose tolerance"},
      {"measurement": "LPS-induced IL-1β, IL-6 and MCP-1 production", "setting": "THP-1 macrophages; 500 nM CDDO-EA 1 hour then 100 ng/ml LPS 6 hours", "result": "primarily inhibited LPS-induced IL-1B, IL-6 and MCP-1 production; also recorded: blocks LPS induced IL-1β, IL-6, and MCP-1 secretion"},
      {"measurement": "IFN-γ", "setting": "THP-1 macrophages; 500 nM CDDO-EA alone, no LPS", "result": "24.78 ± 20.55", "unit": "pg/mL"},
      {"measurement": "IL-1β", "setting": "THP-1 macrophages; 500 nM CDDO-EA alone, no LPS", "result": "2.19 ± 1.49", "unit": "pg/mL"},
      {"measurement": "IL-4", "setting": "THP-1 macrophages; 500 nM CDDO-EA alone, no LPS", "result": "0.21 ± 0.12", "unit": "pg/mL"},
      {"measurement": "IL-6", "setting": "THP-1 macrophages; 500 nM CDDO-EA alone, no LPS", "result": "0.12 ± 0.02", "unit": "pg/mL"},
      {"measurement": "IL-8", "setting": "THP-1 macrophages; 500 nM CDDO-EA alone, no LPS", "result": "6339.67 ± 1535.18", "unit": "pg/mL"},
      {"measurement": "IL-17", "setting": "THP-1 macrophages; 500 nM CDDO-EA alone, no LPS", "result": "22.72 ± 9.47", "unit": "pg/mL"},
      {"measurement": "MCP-1", "setting": "THP-1 macrophages; 500 nM CDDO-EA alone, no LPS", "result": "2.11 ± 1.35", "unit": "pg/mL"},
      {"measurement": "MIP-1β", "setting": "THP-1 macrophages; 500 nM CDDO-EA alone, no LPS", "result": "3763.83 ± 1229.25", "unit": "pg/mL"},
      {"measurement": "TNF-α", "setting": "THP-1 macrophages; 500 nM CDDO-EA alone, no LPS", "result": "128.33 ± 38.63", "unit": "pg/mL"},
      {"measurement": "G-CSF", "setting": "THP-1 macrophages; [2]", "result": "10.72 ± 4.71", "unit": "pg/mL"},
      {"measurement": "IFN-γ", "setting": "THP-1 macrophages; [2]", "result": "114.38 ± 5.43", "unit": "pg/mL"},
      {"measurement": "IL-1β", "setting": "THP-1 macrophages; [2]", "result": "64.65 ± 17.12", "unit": "pg/mL"},
      {"measurement": "IL-2", "setting": "THP-1 macrophages; [2]", "result": "4.09 ± 1.51", "unit": "pg/mL"},
      {"measurement": "IL-4", "setting": "THP-1 macrophages; [2]", "result": "1.55 ± 0.18", "unit": "pg/mL"},
      {"measurement": "IL-6", "setting": "THP-1 macrophages; [2]", "result": "12.67 ± 5.50", "unit": "pg/mL"},
      {"measurement": "IL-8", "setting": "THP-1 macrophages; [2]", "result": "9691.33 ± 1268.42", "unit": "pg/mL"},
      {"measurement": "IL-12", "setting": "THP-1 macrophages; [2]", "result": "2.00 ± 1.00", "unit": "pg/mL"},
      {"measurement": "IL-17", "setting": "THP-1 macrophages; [2]", "result": "40.16 ± 8.13", "unit": "pg/mL"},
      {"measurement": "MCP-1", "setting": "THP-1 macrophages; [2]", "result": "11.05 ± 1.65", "unit": "pg/mL"},
      {"measurement": "MIP-1β", "setting": "THP-1 macrophages; [2]", "result": "11212.50 ± 877.01", "unit": "pg/mL"},
      {"measurement": "TNF-α", "setting": "THP-1 macrophages; [2]", "result": "8237.33 ± 1137.80", "unit": "pg/mL"}
    ]}
  ]
}
